The target in one data set is APOL1. The following applies: ASO.
The next data set addresses SNHG14. The following applies: ASO, Human Neuronal Cell.

After the bases stand the sugars from the 5' end (letter, count) and the backbone: PS all phosphorothioate, else s phosphorothioate and o phosphodiester by linkage. Methylation of C is not given here. e = 2'-O-(2-methoxyethyl) (MOE); l = locked nucleic acid (LNA); k = constrained ethyl (cEt); d = 2'-deoxy (DNA)

Take AACATGAAGTGAGCCT (sugars k4 d9 k3, PS): the target mRNA inhibition amounted to 20% in the data set with APOL1 (A431, 0.0625 µM); 49% with APOL1 (A431, 0.25 µM); 73% with APOL1 (A431, 1 µM).
For the sequence “AACGCAATGCTGACTT (sugars k3 d4 k3 e1 d5, PS)”, the target mRNA inhibition is 3% in the data set with APOL1 (A431, 0.0156 µM); 24% with APOL1 (A431, 0.0625 µM); 54% with APOL1 (A431, 0.25 µM); 80% with APOL1 (A431, 1 µM); 91% with APOL1 (A431, 2 µM).
As to “AAGATTGGCTCTGGCT (sugars k2 d4 e4 k2 d4, PS)”, the target mRNA inhibition with APOL1 (A431, 2 µM) turned out to be 55%.
On the same count and under the same terms, then “AAGCTTTAAACTCAGG (sugars kkkddddkekeddddd, PS)”, with 84%.
In the case of AAGGAGTTGCTGAAAC (sugars k4 d9 k3, PS), the target mRNA inhibition is 32% in the data set with APOL1 (A431, 0.0625 µM); 48% with APOL1 (A431, 0.25 µM); 63% with APOL1 (A431, 1 µM).
Consider “AAGTATTGCCAGCTAA (sugars k3 d5 k3 d5, PS)”, for which the target mRNA inhibition in the data set with APOL1 (A431, 2 µM) came out at 90%.
The same measure, in the same setting: with “AAGTATTGCCAGCTAA (sugars kddddkekekeddddd, PS)” the figure was 25%; with “AAGTATTGCCAGCTAA (sugars kkddddkdkdkddddd, PS)”, 70%; with “AAGTATTGCCAGCTAA (sugars kkddddkekekddddd, PS)”, 62%.
On the same count and under the same terms, with “AAGTATTGCCAGCTAA (sugars kkddddkekekkdddd, PS)” the figure was 27%; with “AAGTATTGCCAGCTAA (sugars kkkddddkdkdkdddd, PS)”, 54%.
The same measure, in the same setting: with “AAGTATTGCCAGCTAA (sugars kkkddddkekeddddd, PS)” the figure was 63%.
“TTATAGCCATTCTATCT (sugars lddllddddddldldll, PS)”: in the data set with SNHG14 (7.5 µM), the target mRNA inhibition came to 15%.
The same measure, in the same setting: with “TTATAGCCATTCTATCT (sugars ldldddddddddldlll, PS)” the figure was 53%; with “TTATAGCCATTCTATCT (sugars ldldlddddddldddll, PS)”, 47%; with “TTATAGCCATTCTATCT (sugars ldldlddddddlddlll, PS)”, 37%.
The same measure, in the same setting: with “TTATAGCCATTCTATCT (sugars ldlldddddddldddll, PS)” the figure was 43%.
Same read-out and setting: then “TTATAGCCATTCTATCT (sugars ldlldddddddlddlll, PS)”, with 21%; and “TTATAGCCATTCTATCT (sugars lldddddddddldldll, PS)”, with 56%.
In turn, “TTATAGCCATTCTATCT (sugars llddlddddddldddll, PS)” yielded a target mRNA inhibition in the data set with SNHG14 (7.5 µM) of 45%.
The same measure, in the same setting: then “TTATAGCCATTCTATCT (sugars lldldddddddldddll, PS)”, with 59%; and “TTATAGCCATTCTATCT (sugars lldldddddddldldll, PS)”, with 26%.
“TTATAGCCATTCTATCT (sugars lllddddddddldldll, PS)” displayed a target mRNA inhibition in the data set with SNHG14 (7.5 µM) of 44%.
In turn, “TTATTTCCATTTATTTTCA (sugars lddlldddddddldldlll, PS)” gave a target mRNA inhibition in the data set with SNHG14 (7.5 µM) of 69%.
With TTCAAGAATTCTCTCC (sugars l2 d10 l4, PS), the results for the target mRNA inhibition with SNHG14 (0.2 µM) and with SNHG14 (1 µM) were 46% and 50%, respectively.
Consider “TTCAGCTTTTAACCAGAGTG (sugars l2 d15 l3, PS)”, for which the target mRNA inhibition in the data set with SNHG14 (7.5 µM) came to 73%.
On to “TTCCAGCTTATTTACCT (sugars l3 d12 l2, PS)”, for which the target mRNA inhibition came to 41% with SNHG14 (0.2 µM) and 26% with SNHG14 (1 µM).
In the data set with SNHG14 (7.5 µM), “TTCCATTTATTTCCATTTAT (sugars ldddlddddddddddlldll, PS)” displayed a target mRNA inhibition of 55%.
“TTCTACTAAACATACAC (sugars l3 d11 l3, PS)”: the target mRNA inhibition with SNHG14 (0.2 µM) came out at 40%; in the data set with SNHG14 (1 µM) it was 49%.
“TTCTACTATACTTTCCTCT (sugars ldddldddddddddlddll, PS)”: the target mRNA inhibition with SNHG14 (7.5 µM) stood at 57%.
On the same count and under the same terms, with “TTCTACTATACTTTCCTCT (sugars ldldddddddddlddddll, PS)” the figure was 59%; with “TTCTGTATACACCATCC (sugars l1 d3 l1 d10 l2, PS)”, 50%.
Same read-out and setting: with “TTCTGTATACACCATCC (sugars l1 d12 l4, PS)” the figure was 51%; with “TTCTGTATACACCATCC (sugars ldddldddddddldlll, PS)”, 58%; with “TTCTGTATACACCATCC (sugars lddldddddddddldll, PS)”, 57%.
Same read-out and setting: with “TTCTGTATACACCATCCC (sugars ldlddddddddddlddll, PS)” the figure was 63%.
On to “TTCTGTTTCCATTTACA (sugars l4 d11 l2, PS)”, for which the target mRNA inhibition is 43% with SNHG14 (0.2 µM) and 39% in the data set with SNHG14 (1 µM).
Regarding TTGATTCAATTCCCTT (sugars l2 d10 l4, PS), the target mRNA inhibition came to 67% with SNHG14 (0.2 µM) and 72% with SNHG14 (1 µM).
In the data set with SNHG14 (7.5 µM), “TTGATTCAATTCCCTTA (sugars l1 d2 l1 d9 l4, PS)” registered a target mRNA inhibition of 69%.
Still for that read-out and setting: with “TTGATTCAATTCCCTTA (sugars l2 d9 l1 d3 l2, PS)” the figure was 60%; with “TTGATTCAATTCCCTTA (sugars ldddlddddddldldll, PS)”, 48%.
The same measure, in the same setting: with “TTGATTCAATTCCCTTA (sugars ldldlddddddddldll, PS)” the figure was 59%.
As for “TTGCTTCCAATTTATTT (sugars l4 d11 l2, PS)”, the target mRNA inhibition in the data set with SNHG14 (0.2 µM) worked out at 25%; with SNHG14 (1 µM), 44%.
For “TTTACACTTAATTATACT (sugars l2 d12 l4, PS)” the same measures were 7% and 6%.
In the case of “TTTACACTTAATTATACTTC (sugars l6 d7 l1 d4 l2, PS)”, in the data set with SNHG14 (7.5 µM), the target mRNA inhibition stood at 58%.
Take “TTTACTCTGCAATACAC (sugars l3 d11 l3, PS)”: the target mRNA inhibition with SNHG14 (0.2 µM) amounted to 41%; in the data set with SNHG14 (1 µM), 56%.
The matching figures for TTTACTGTCAACTCCT (sugars l2 d10 l4, PS): 51% and 57%.
For the sequence “TTTATACCTTTCTTTAACCC (sugars l1 d12 l1 d4 l2, PS)”, the target mRNA inhibition with SNHG14 (7.5 µM) stood at 17%.
On the same count and under the same terms, with “TTTATACCTTTCTTTAACCC (sugars l1 d14 l2 d1 l2, PS)” the figure was 63%; with “TTTATACCTTTCTTTAACCC (sugars l2 d1 l1 d14 l2, PS)”, 50%; with “TTTATACCTTTCTTTAACCC (sugars lddldddddddddlddddll, PS)”, 53%.
In turn, “TTTATCAATATCTTCTCA (sugars l3 d2 l1 d9 l3, PS)” came in with a target mRNA inhibition in the data set with SNHG14 (7.5 µM) of 65%.
Consider “TTTATCAATATCTTCTCA (sugars l4 d10 l1 d1 l2, PS)”, for which the target mRNA inhibition with SNHG14 (7.5 µM) turned out to be 69%.
Same read-out and setting: with “TTTATCAATATCTTCTCA (sugars lllldldddddddlddll, PS)” the figure was 62%.
Same read-out and setting: with “TTTATCAATATCTTCTCAC (sugars l1 d12 l2 d1 l3, PS)” the figure was 60%; with “TTTATCAATATCTTCTCAC (sugars l4 d12 l3, PS)”, 70%.
“TTTATCAATATCTTCTCAC (sugars lddlllddddddddlddll, PS)”: the target mRNA inhibition with SNHG14 (7.5 µM) was 63%.
Same read-out and setting: then “TTTATCAATATCTTCTCAC (sugars ldlddlddddddldddlll, PS)”, with 61%; and “TTTATCAATATCTTCTCAC (sugars lllddldddddddllddll, PS)”, with 54%.
On the same count and under the same terms, then “TTTATCAATATCTTCTCACT (sugars ldddddddddddddldldll, PS)”, with 53%; and “TTTATCAATATCTTCTCACT (sugars lddddlddddddddddldll, PS)”, with 68%.
The same measure, in the same setting: then “TTTATCAATATCTTCTCACT (sugars ldldddddddddddldddll, PS)”, with 39%; and “TTTCCATTTATTTCCATTT (sugars l2 d2 l2 d11 l2, PS)”, with 59%.
For “TTTCCATTTATTTCCATTT (sugars l4 d13 l2, PS)”, the target mRNA inhibition in the data set with SNHG14 (0.2 µM) turned out to be 47%; in the data set with SNHG14 (1 µM), 56%.
Consider “TTTCCATTTATTTCCATTT (sugars lldlddddddddddlldll, PS)”, for which the target mRNA inhibition with SNHG14 (7.5 µM) came out at 53%.
“TTTCCTCTGCTTATAAC (sugars l4 d11 l2, PS)”: the target mRNA inhibition came out at 34% in the data set with SNHG14 (0.2 µM) and 56% with SNHG14 (1 µM).
For “TTTCTGACTCCCTATCC (sugars l2 d13 l2, PS)” the same measures were 25% and 14%.
In the data set with SNHG14 (7.5 µM), “TTTTAACCAGAGTGGCAT (sugars l4 d11 l3, PS)” showed a target mRNA inhibition of 56%.
Same read-out and setting: with “TTTTAACCAGAGTGGCATCC (sugars l2 d16 l2, PS)” the figure was 59%.
In turn, “TTTTATACCTTTCTTTAACC (sugars l1 d1 l2 d14 l2, PS)” showed a target mRNA inhibition with SNHG14 (7.5 µM) of 57%.
Regarding “TTTTATACCTTTCTTTAACC (sugars l1 d5 l1 d10 l3, PS)”, the target mRNA inhibition with SNHG14 (7.5 µM) amounted to 38%.
The same measure, in the same setting: then “TTTTATACCTTTCTTTAACC (sugars l1 d14 l1 d2 l2, PS)”, with 21%; and “TTTTATACCTTTCTTTAACC (sugars ldlddddddddddlldddll, PS)”, with 53%.
The same measure, in the same setting: then “TTTTATACCTTTCTTTAACC (sugars llddddldddddddldddll, PS)”, with 51%; and “TTTTATACCTTTCTTTAACC (sugars llldddddddddddldldll, PS)”, with 65%; and “TTTTTATACCTTTCTTTAAC (sugars ldllddddddddddlldlll, PS)”, with 57%.
Still for that read-out and setting: then “TTTTTTCTTACTATCTTCAA (sugars lldldddddddddddldlll, PS)”, with 51%; and “TTTTTTCTTACTATCTTCAA (sugars llldddlddddddddlddll, PS)”, with 58%; and “TTTTTTTCTTACTATCTTCA (sugars lddddddddddddldlddll, PS)”, with 55%.
